Measured values published in patent US20230303497A1, “BENZYLAMINE OR BENZYL ALCOHOL DERIVATIVE AND USES THEREOF” (CHENGDU HYPERWAY PHARMACEUTICALS CO., LTD, priority 2020, published 2023).

The compounds below were run against human NaV1.8 ion channel (Homo sapiens (Human), UniProt Q9Y5Y9) (assay: Compound inhibition activity on human NaV1.8 ion channel in HEK293 cells (whole-cell patch clamp)). Details: 100 nm concentration; HEK293 cells, resting protocol.
Assay type: cell-based
Method: Test Case 1: Compound Inhibition Activity on Human NaV1.8 Ion Channel in HEK293 Cells
The final concentrations of the test compounds are prepared on the same day and then dissolved in extracellular solution. […] The intracellular solution (mM) contains: Aspartic acid, 140; MgCl2, 2; EGTA 11; HEPES, 10; pH 7.2 (CsOH titration). All test solutions contain 1 μM TTX.
The test solution are stored at a concentration of 3 mM in dimethyl sulfoxide (DMSO). The solutions will be dissolved in extracellular solution on the day of testing and prepared to the required concentration.
All experiments were performed at room temperature. Each cell itself is taken as the corresponding control.
At least one cell is tested per concentration.
HEK293 cell steady expressing NaV1.8 ion channel.
The intracellular fluid (mM) contains: Aspartic acid, 140; MgCl2, 2; EGTA 11; HEPES, 10; pH 7.2 (CsOH titration). […] Electrodes are drawn with PC-10 (Narishige, Japan). Recording is performed with whole-cell diaphragm clamp.
The cells are clamped at −80 mV and then depolarized to 10 mV with a sustained 10 ms square wave to give a Nav1.8 current. This procedure is repeated every 5 seconds.

Sequence of human NaV1.8 ion channel (Q9Y5Y9 whole entry): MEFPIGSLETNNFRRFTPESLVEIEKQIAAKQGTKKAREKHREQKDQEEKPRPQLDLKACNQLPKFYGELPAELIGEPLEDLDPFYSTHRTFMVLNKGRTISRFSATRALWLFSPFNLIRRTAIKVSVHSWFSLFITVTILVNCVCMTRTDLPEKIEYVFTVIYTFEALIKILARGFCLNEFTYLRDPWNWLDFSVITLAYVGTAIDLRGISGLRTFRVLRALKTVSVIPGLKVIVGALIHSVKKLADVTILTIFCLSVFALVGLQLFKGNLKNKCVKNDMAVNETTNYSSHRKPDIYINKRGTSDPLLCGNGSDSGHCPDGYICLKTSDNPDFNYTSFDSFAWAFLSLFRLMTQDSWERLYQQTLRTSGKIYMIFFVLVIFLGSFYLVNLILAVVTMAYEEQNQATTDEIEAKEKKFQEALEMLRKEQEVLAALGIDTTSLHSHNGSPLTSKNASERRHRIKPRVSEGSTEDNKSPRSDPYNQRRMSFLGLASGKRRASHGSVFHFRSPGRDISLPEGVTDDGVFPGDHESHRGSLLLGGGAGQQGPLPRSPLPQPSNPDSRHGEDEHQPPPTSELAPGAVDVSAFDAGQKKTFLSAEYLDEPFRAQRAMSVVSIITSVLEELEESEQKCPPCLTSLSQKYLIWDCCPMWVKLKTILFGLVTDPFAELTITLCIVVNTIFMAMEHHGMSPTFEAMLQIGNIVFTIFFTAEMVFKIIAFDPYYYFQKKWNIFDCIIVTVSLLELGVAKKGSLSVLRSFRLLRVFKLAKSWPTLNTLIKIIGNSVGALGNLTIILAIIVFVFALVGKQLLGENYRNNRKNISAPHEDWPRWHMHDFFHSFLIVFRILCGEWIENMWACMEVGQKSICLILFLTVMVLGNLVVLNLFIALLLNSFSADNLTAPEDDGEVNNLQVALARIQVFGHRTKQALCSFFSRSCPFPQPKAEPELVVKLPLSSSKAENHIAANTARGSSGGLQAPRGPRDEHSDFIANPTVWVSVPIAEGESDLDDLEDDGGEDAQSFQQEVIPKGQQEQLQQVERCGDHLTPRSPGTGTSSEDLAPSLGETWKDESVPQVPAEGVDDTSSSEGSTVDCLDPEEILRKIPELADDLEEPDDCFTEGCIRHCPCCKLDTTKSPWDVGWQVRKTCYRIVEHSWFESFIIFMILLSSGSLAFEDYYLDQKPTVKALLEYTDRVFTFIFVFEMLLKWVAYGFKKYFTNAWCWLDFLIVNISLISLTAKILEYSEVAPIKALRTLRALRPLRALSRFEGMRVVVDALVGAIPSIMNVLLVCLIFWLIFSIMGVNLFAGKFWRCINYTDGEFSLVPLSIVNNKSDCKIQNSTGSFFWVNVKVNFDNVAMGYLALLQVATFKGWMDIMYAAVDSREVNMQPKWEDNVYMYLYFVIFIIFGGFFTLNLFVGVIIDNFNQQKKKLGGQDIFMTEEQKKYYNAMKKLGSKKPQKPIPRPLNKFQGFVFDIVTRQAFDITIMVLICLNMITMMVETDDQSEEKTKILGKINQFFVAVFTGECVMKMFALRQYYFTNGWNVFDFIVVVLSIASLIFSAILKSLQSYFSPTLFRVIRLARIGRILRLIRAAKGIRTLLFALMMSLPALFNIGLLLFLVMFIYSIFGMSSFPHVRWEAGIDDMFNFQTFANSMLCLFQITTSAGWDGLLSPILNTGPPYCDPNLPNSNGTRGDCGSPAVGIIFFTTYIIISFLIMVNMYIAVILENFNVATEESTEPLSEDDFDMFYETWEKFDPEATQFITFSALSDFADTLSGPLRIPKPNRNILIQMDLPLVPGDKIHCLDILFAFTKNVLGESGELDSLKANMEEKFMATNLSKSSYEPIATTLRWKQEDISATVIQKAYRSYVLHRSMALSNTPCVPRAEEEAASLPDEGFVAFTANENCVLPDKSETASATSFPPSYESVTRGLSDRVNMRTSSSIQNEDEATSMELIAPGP

Compound | Inhibition ratio of compounds against Nav1.8 (Activity of inhibition) | Inhibition ratio of Nav1.8 (Activity of inhibition)
Cc1cc(F)ccc1Oc1cc(C2CC2)c(C(F)(F)F)cc1C(=O)Nc1ccnc(OCC(O)CO)c1 (centres unmarked) [Example 63, 4-Cyclopropyl-N-(2-(2,3-dihydroxypropoxy)pyridin-4-yl)-2-(4-fluoro-2-methylphenoxy)-5-(trifluoromethyl) benzamide] | B (80 > B >= 50) | 
N-(3-(1-amino-3-fluoropropyl)-4-fluorophenyl)-4-cyclopropyl-2-(4-fluoro-2-methyl phenoxy)-5-(trifluoromethyl) benzamide [Example 21] |  | B (80 > B >= 50)

Same assay, conditions: 100 nm concentration; HEK293 cells, resting protocol; read-out: Inhibition ratio of compounds against Nav1.8 (Activity of inhibition)

Compound | inhibition at 0.1 µM [%]
Cc1cc(F)ccc1Oc1cc(C2CC2)c(C(F)(F)F)cc1C(=O)Nc1ccnc(OCC(O)CNC(C)(C)C)c1 (centres unmarked) [Example 64, N-(2-(3-(tert-butylamino)-2-hydroxypropoxy)pyridin-4-yl)-4-cyclopropyl-2-(4-fluoro-2-methylphenoxy)-5-(trifluoromethyl) benzamide] | 20 to 50
Cc1cc(F)ccc1Oc1cc(C2CC2)c(C(F)(F)F)cc1C(=O)Nc1ccc(F)c(OCC(O)CNC(=O)CO)c1 (centres unmarked) [Example 65, 4-Cyclopropyl-2-(4-fluoro-2-methylphenoxy)-N-(4-fluoro-3-(2-hydroxy-3-(2-hydroxyacetylamino)propoxy)phenyl)-5-(trifluoromethyl) benzamide] | > 80
Cc1cc(F)ccc1Oc1cc(C2CC2)c(C(F)(F)F)cc1C(=O)Nc1ccc(F)c(C(N)CCNC(C)(C)C)c1 (centres unmarked) [Example 66] | > 80
Cc1cc(F)ccc1Oc1cc(C2CC2)c(C(F)(F)F)cc1C(=O)Nc1ccc(F)c(OCC(O)CNC(C)C)c1 (centres unmarked) [Example 67] | > 80
Cc1cc(F)ccc1Oc1cc(C2CC2)c(C(F)(F)F)cc1C(=O)Nc1ccc(F)c(OCC2CCCN2)c1 (centres unmarked) [Example 68] | 20 to 50
Cc1cc(F)ccc1Oc1cc(C2CC2)c(C(F)(F)F)cc1C(=O)Nc1ccnc(C(F)(F)F)c1 [Example 69] | 20 to 50
Cc1cc(F)ccc1Oc1cc(C2CC2)c(C(F)(F)F)cc1C(=O)Nc1ccnc(C(C)(C)O)c1 [Example 70] | 20 to 50
Cc1cc(F)ccc1Oc1cc(C2CC2)c(C(F)(F)F)cc1C(=O)Nc1ccc(F)c(OC2CC(O)C2)c1 (centres unmarked) [Example 71] | 50 to 80
Cc1cc(F)ccc1Oc1cc(C2CC2)c(C(F)(F)F)cc1C(=O)Nc1ccc(F)c(C(CCO)N2CCCC2)c1 (centres unmarked) [Example 72] | 50 to 80
Cc1cc(F)ccc1Oc1cc(C2CC2)c(C(F)(F)F)cc1C(=O)Nc1ccc(F)c(C(CCO)NS(C)(=O)=O)c1 (centres unmarked) [Example 73] | 20 to 50
Cc1cc(F)ccc1Oc1cc(C2CC2)c(C(F)(F)F)cc1C(=O)Nc1ccc(F)c(OCc2ncc[nH]2)c1 [Example 74] | 50 to 80
Cc1cc(F)ccc1Oc1cc(C2CC2)c(C(F)(F)F)cc1C(=O)Nc1ccc(F)c(OCc2nccs2)c1 [Example 75] | 50 to 80
Cc1cc(F)ccc1Oc1cc(C2CC2)c(C(F)(F)F)cc1C(=O)Nc1ccc(F)c(OCC(N)=O)c1 [Example 76] | > 80
Cc1cc(F)ccc1Oc1cc(C2CC2)c(C(F)(F)F)cc1C(=O)Nc1ccc(F)c(OCC(O)CNC(C)(C)C)c1 (centres unmarked) [Example 77] | > 80
Cc1cc(F)ccc1Oc1cc(C2CC2)c(C(F)(F)F)cc1C(=O)Nc1ccc(F)c(OCC(O)CNC2CC2)c1 (centres unmarked) [Example 78] | > 80
Cc1cc(F)ccc1Oc1cc(C2CC2)c(C(F)(F)F)cc1C(=O)Nc1ccc(F)c(OCC(O)CN2CCCC2)c1 (centres unmarked) [Example 79] | 20 to 50
Cc1cc(F)ccc1Oc1cc(C2CC2)c(C(F)(F)F)cc1C(=O)Nc1ccc(F)c(OCC2CNCCO2)c1 (centres unmarked) [Example 80] | 50 to 80
CC(=O)NCC(O)COc1cc(NC(=O)c2cc(C(F)(F)F)c(C3CC3)cc2Oc2ccc(F)cc2C)ccc1F (centres unmarked) [Example 81] | 50 to 80
Cc1cc(F)ccc1Oc1cc(C2CC2)c(C(F)(F)F)cc1C(=O)Nc1cccc(OCC(O)CNC(C)C)c1 (centres unmarked) [Example 82] | > 80
Cc1cc(F)ccc1Oc1cc(C2CC2)c(C(F)(F)F)cc1C(=O)Nc1ccc(F)c(OC2CCC(CO)OC2)c1 (centres unmarked) [Example 84] | 20 to 50
Cc1cc(F)ccc1Oc1cc(C2CC2)c(C(F)(F)F)cc1C(=O)Nc1ccc(F)c(OC2CCC(CN)OC2)c1 (centres unmarked) [Example 85] | 20 to 50
Cc1cc(F)ccc1Oc1cc(C2CC2)c(C(F)(F)F)cc1C(=O)Nc1ccc(F)c(OCC(O)CNC2(C(=O)O)CC2)c1 (centres unmarked) [Example 86] | 20 to 50
Cc1cc(F)ccc1Oc1cc(C2CC2)c(C(F)(F)F)cc1C(=O)Nc1ccc(F)c(OCC(O)CNCC(F)(F)F)c1 (centres unmarked) [Example 87] | 50 to 80
Cc1cc(F)ccc1Oc1cc(C2CC2)c(C(F)(F)F)cc1C(=O)Nc1ccc(F)c(OCC(=O)NC2(C(F)(F)F)CC2)c1 [Example 89] | 50 to 80
Cc1cc(F)ccc1Oc1cc(C2CC2)c(C(F)(F)F)cc1C(=O)Nc1ccc(F)c(OCC(O)CO)c1 (centres unmarked) [Example 90] | 50 to 80
Cc1cc(F)ccc1Oc1cc(C2CC2)c(C(F)(F)F)cc1C(=O)Nc1ccc(F)c(OCC(O)CNC(C)C(F)(F)F)c1 (centres unmarked) [Example 91] | 20 to 50

Compound | inhibition at 0.1 µM [%]
Cc1cc(F)ccc1Oc1cc(C2CC2)c(C(F)(F)F)cc1C(=O)Nc1ccc(F)c(OCC(O)CNc2ccccc2)c1 (centres unmarked) [Example 92] | 20 to 50
Cc1cc(F)ccc1Oc1cc(C2CC2)c(C(F)(F)F)cc1C(=O)Nc1ccc(F)c(OCC(O)CNC23CC(C2)C3)c1 (centres unmarked) [Example 93] | 50 to 80
Cc1cc(F)ccc1Oc1cc(C2CC2)c(C(F)(F)F)cc1C(=O)Nc1ccc(F)c(OCC(O)CNC23CC4CC(CC(C4)C2)C3)c1 (centres unmarked) [Example 94] | 50 to 80
COc1ccc(NCC(O)COc2cc(NC(=O)c3cc(C(F)(F)F)c(C4CC4)cc3Oc3ccc(F)cc3C)ccc2F)cc1 (centres unmarked) [Example 95] | 20 to 50
Cc1cc(F)ccc1Oc1cc(C2CC2)c(C(F)(F)F)cc1C(=O)Nc1ccc(F)c(OCC(O)CNc2ccc(F)cc2)c1 (centres unmarked) [Example 96] | 20 to 50
Cc1cc(F)ccc1Oc1cc(C2CC2)c(C(F)(F)F)cc1C(=O)Nc1ccc(F)c(OCC(O)CNc2cnn(C)c2)c1 (centres unmarked) [Example 97] | 50 to 80
Cc1cc(F)ccc1Oc1cc(C2CC2)c(C(F)(F)F)cc1C(=O)Nc1ccc(F)c(OCC(O)CNc2nccs2)c1 (centres unmarked) [Example 98] | > 80
Cc1cc(F)ccc1Oc1cc(C2CC2)c(C(F)(F)F)cc1C(=O)Nc1ccc(F)c(OCC(O)CNc2ccn[nH]2)c1 (centres unmarked) [Example 99] | 50 to 80
Cc1cc(F)ccc1Oc1cc(C2CC2)c(C(F)(F)F)cc1C(=O)Nc1ccc(F)c(OCC(O)CNc2ncc[nH]2)c1 (centres unmarked) [Example 100] | 50 to 80
Cc1cc(F)ccc1Oc1cc(C(F)(F)F)c(Cl)cc1C(=O)Nc1cnnc(OCC(O)CO)c1 (centres unmarked) [Example 101] | 50 to 80
Cc1cc(F)ccc1Oc1cc(C2CC2)c(C(F)(F)F)cc1C(=O)Nc1cnnc(OCC(O)CO)c1 (centres unmarked) [Example 102] | 50 to 80
Cc1cc(F)ccc1Oc1cc(C(F)(F)F)c(Cl)cc1C(=O)Nc1ccnc(OCC(O)CO)c1 (centres unmarked) [Example 103] | > 80
Cc1cc(F)ccc1Oc1cc(C2CC2)c(C(F)(F)F)cc1C(=O)Nc1ccnc(OC[C@@H](O)CO)c1 [Example 105] | 50 to 80
Cc1cc(F)ccc1Oc1cc(C(F)(F)F)c(Cl)cc1C(=O)Nc1ccc(F)c(OCC(O)CNC(C)C)c1 (centres unmarked) [Example 106] | > 80
Cc1cc(F)ccc1Oc1cc(C(F)(F)F)ccc1C(=O)Nc1ccc(F)c(OCC(O)CNC(=O)CO)c1 (centres unmarked) [Example 107] | 50 to 80
Cc1cc(F)ccc1Oc1cc(C(F)(F)F)ccc1C(=O)Nc1ccnc(OC[C@H](O)CO)c1 [Example 108] | 50 to 80
Cc1cc(F)ccc1Oc1cc(C(F)(F)F)ccc1C(=O)Nc1cnnc(OC[C@H](O)CO)c1 [Example 109] | 20 to 50
Cc1cc(F)ccc1Oc1cc(C(F)(F)F)ccc1C(=O)Nc1ccc(F)c(OCC(O)CN)c1 (centres unmarked) [Example 110] | 50 to 80
Cc1cc(F)ccc1Oc1cc(C2CC2)c(C(F)(F)F)cc1C(=O)Nc1cnnc(OC[C@@H](O)CO)c1 [Example 111] | 50 to 80
Cc1cc(F)ccc1Oc1cc(C(F)(F)F)c(Cl)cc1C(=O)Nc1ccnc(OC[C@@H](O)CO)c1 [Example 113, (S)-5-chloro-N-(2-(2,3-dihydroxypropoxy)pyridin-4-yl)-2-(4-fluoro-2-methylphenoxy)-4-(trifluoromethyl) benzamide] | > 80
Cc1cc(F)ccc1Oc1cc(C(F)(F)F)c(Cl)cc1C(=O)Nc1cnnc(OC[C@@H](O)CO)c1 [Example 115] | 50 to 80
Cc1cc(F)ccc1Oc1cc(C(F)(F)F)c(Cl)cc1C(=O)Nc1ccc(F)c(OC[C@@H](O)CNC(=O)CO)c1 [Example 118] | 50 to 80
COc1cc(F)ccc1Oc1cc(C(F)(F)F)c(Cl)cc1C(=O)Nc1ccnc(OC[C@H](O)CO)c1 [Example 120] | > 80
COc1cc(OC(F)(F)F)ccc1Oc1cc(C(F)(F)F)c(Cl)cc1C(=O)Nc1ccnc(OC[C@H](O)CO)c1 [Example 121] | > 80
Cc1cc(F)ccc1Oc1ccc(C(F)(F)F)cc1C(=O)Nc1ccnc(OC[C@H](O)CO)c1 [Example 122] | 50 to 80
